Data published in ChEMBL document CHEMBL1201862, “PubChem BioAssay data set” (2004).
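Five concentrations, 48 hours, 96-well plates. Here, GI50 denotes the concentration required for 50% inhibition of growth.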 Activity calls are given as the source filed them. Rule as the data show it: active = GI50 up to about 1.1 µM and inactive = higher.

Columns and labels:
Assay in all cases: inhibition of tumour cell growth, NCI panel, 48 h
SK-MEL-2 = system: SK-MEL-2
SNB-19 = system: SNB-19
SW-620 = system: SW-620
SK-MEL-5 = system: SK-MEL-5
A498 = system: A498
HL-60 = system: HL-60
KM12 = system: KM12
CCRF-CEM = system: CCRF-CEM
M19-MEL = system: M19-MEL
SF-295 = system: SF-295
HOP-92 = system: HOP-92
OVCAR-5 = system: OVCAR-5
HT-29 = system: HT-29
K562 = system: K562
UACC-62 = system: UACC-62
COLO 205 = system: COLO 205
SNB-75 = system: SNB-75
LOX IMVI = system: LOX IMVI

For `Nc1nc(SCCNC(=O)CCc2ccc(O)cc2)nc2c1ncn2C1OC(CO)C(O)C1O` (stereo not drawn), the GI50 (SK-MEL-2) was > 203 µM (inactive), the GI50 (SNB-19) was > 203 µM (inactive) and the GI50 (SW-620) was > 203 µM (inactive). The GI50 (SK-MEL-5) was > 203 µM (inactive), the GI50 (A498) was > 203 µM (inactive) and the GI50 (HL-60) was > 203 µM (inactive). The GI50 (KM12) was > 203 µM (inactive), the GI50 (CCRF-CEM) was > 203 µM (inactive) and the GI50 (M19-MEL) was > 203 µM (inactive). The GI50 (SF-295) was > 203 µM (inactive), the GI50 (HOP-92) was > 203 µM (inactive) and the GI50 (OVCAR-5) was > 203 µM (inactive). The GI50 (HT-29) was > 203 µM (inactive), the GI50 (K562) was > 203 µM (inactive) and the GI50 (UACC-62) was > 203 µM (inactive). The GI50 (COLO 205) was > 203 µM (inactive), the GI50 (SNB-75) was > 203 µM (inactive) and the GI50 (LOX IMVI) was > 203 µM (inactive).

In the case of `O=C1C2=C(c3ccccc31)C(c1ccc(F)cc1)N1C(=O)CCSC1=N2` (stereo not drawn), the GI50 (SK-MEL-2) was > 100 µM (inactive), the GI50 (SNB-19) was > 100 µM (inactive) and the GI50 (SW-620) was > 100 µM (inactive). The GI50 (SK-MEL-5) was 60.5 µM (inactive), the GI50 (A498) was > 100 µM (inactive) and the GI50 (HL-60) was 65.6 µM (inactive). The GI50 (KM12) was 55.1 µM (inactive), the GI50 (CCRF-CEM) was 89.5 µM (inactive) and the GI50 (M19-MEL) was > 100 µM (inactive). For the same compound, the GI50 (SF-295) was > 100 µM (inactive), the GI50 (HOP-92) was 24.7 µM (inactive) and the GI50 (OVCAR-5) was > 100 µM (inactive). The GI50 (HT-29) was > 100 µM (inactive), the GI50 (K562) was > 100 µM (inactive) and the GI50 (UACC-62) was 62.1 µM (inactive). For the same compound, the GI50 (COLO 205) was > 100 µM (inactive) and the GI50 (SNB-75) was 24.4 µM (inactive).

For `COc1c(C)cc2c(c1O)C1NC(C2)[C@H](O)N2C3COC(=O)[C@@]4(CS[C@@H](c5c(OC(C)=O)c(C)c6c(c53)OCO6)C12)NCCC1=C4NC2C=CC=CC12` (stereo partly drawn), the GI50 (SK-MEL-2) was < 0.01 µM (active), the GI50 (SNB-19) was < 0.01 µM (active) and the GI50 (SW-620) was < 0.01 µM (active). The GI50 (SK-MEL-5) was < 0.01 µM (active), the GI50 (A498) was < 0.01 µM (active) and the GI50 (HL-60) was < 0.01 µM (active). The GI50 (CCRF-CEM) was < 0.01 µM (active), the GI50 (M19-MEL) was < 0.01 µM (active) and the GI50 (SF-295) was < 0.01 µM (active). For the same compound, the GI50 (HT-29) was < 0.01 µM (active), the GI50 (K562) was < 0.01 µM (active) and the GI50 (UACC-62) was < 0.01 µM (active). For the same compound, the GI50 (COLO 205) was < 0.01 µM (active), the GI50 (SNB-75) was < 0.01 µM (active) and the GI50 (LOX IMVI) was < 0.01 µM (active).

`Cc1ccc(S(=O)(=O)N2CCC2c2ccccc2)cc1` (stereo not drawn) was tested, and the GI50 (SK-MEL-2) was > 100 µM (inactive), the GI50 (SNB-19) was 68.7 µM (inactive) and the GI50 (SW-620) was > 100 µM (inactive). For the same compound, the GI50 (SK-MEL-5) was 42 µM (inactive), the GI50 (A498) was > 100 µM (inactive) and the GI50 (HL-60) was 7.13 µM (inactive). For the same compound, the GI50 (KM12) was 82 µM (inactive), the GI50 (CCRF-CEM) was 80.4 µM (inactive) and the GI50 (M19-MEL) was > 100 µM (inactive). The GI50 (SF-295) was 74.6 µM (inactive), the GI50 (HOP-92) was 10.1 µM (inactive) and the GI50 (HT-29) was > 100 µM (inactive). For the same compound, the GI50 (K562) was 41.8 µM (inactive), the GI50 (UACC-62) was 76.7 µM (inactive) and the GI50 (COLO 205) was > 100 µM (inactive). The GI50 (SNB-75) was 72.6 µM (inactive) and the GI50 (LOX IMVI) was > 100 µM (inactive).

`Cc1ccc(C)c(NC(=O)C(=O)C(C2C(C)CC(=O)C2CC(=O)O)[N+](=O)[O-])c1` (stereo not drawn) was tested, and the GI50 (SK-MEL-2) was > 100 µM (inactive), the GI50 (SNB-19) was > 100 µM (inactive) and the GI50 (SW-620) was > 100 µM (inactive). The GI50 (SK-MEL-5) was > 100 µM (inactive), the GI50 (A498) was > 100 µM (inactive) and the GI50 (HL-60) was > 100 µM (inactive). The GI50 (KM12) was > 100 µM (inactive), the GI50 (CCRF-CEM) was > 100 µM (inactive) and the GI50 (M19-MEL) was > 100 µM (inactive). For the same compound, the GI50 (SF-295) was > 100 µM (inactive), the GI50 (HOP-92) was > 100 µM (inactive) and the GI50 (OVCAR-5) was > 100 µM (inactive). The GI50 (HT-29) was > 100 µM (inactive), the GI50 (K562) was > 100 µM (inactive) and the GI50 (UACC-62) was > 100 µM (inactive). The GI50 (COLO 205) was > 100 µM (inactive), the GI50 (SNB-75) was > 100 µM (inactive) and the GI50 (LOX IMVI) was > 100 µM (inactive).

In the case of `O=c1c2ccccc2c2c3c1cccc3c1cccc3c(=O)c4ccccc4c2c31`, the GI50 (SK-MEL-2) was > 100 µM (inactive), the GI50 (SNB-19) was > 100 µM (inactive) and the GI50 (SW-620) was > 100 µM (inactive). The GI50 (SK-MEL-5) was > 100 µM (inactive), the GI50 (A498) was > 100 µM (inactive) and the GI50 (HL-60) was > 10 µM (inactive). For the same compound, the GI50 (KM12) was > 100 µM (inactive), the GI50 (CCRF-CEM) was > 100 µM (inactive) and the GI50 (M19-MEL) was > 100 µM (inactive). The GI50 (SF-295) was > 100 µM (inactive), the GI50 (HOP-92) was > 100 µM (inactive) and the GI50 (OVCAR-5) was > 100 µM (inactive). For the same compound, the GI50 (HT-29) was > 100 µM (inactive), the GI50 (K562) was > 100 µM (inactive) and the GI50 (UACC-62) was > 100 µM (inactive). The GI50 (COLO 205) was > 100 µM (inactive), the GI50 (SNB-75) was > 100 µM (inactive) and the GI50 (LOX IMVI) was > 100 µM (inactive).

With `CC/C=C1\N=C(c2ccc(Cl)cc2)OC1=O` the GI50 (SK-MEL-2) was > 100 µM (inactive), the GI50 (SNB-19) was > 100 µM (inactive) and the GI50 (SW-620) was > 100 µM (inactive). For the same compound, the GI50 (A498) was > 100 µM (inactive), the GI50 (HL-60) was > 100 µM (inactive) and the GI50 (KM12) was > 100 µM (inactive). For the same compound, the GI50 (CCRF-CEM) was > 100 µM (inactive), the GI50 (M19-MEL) was > 100 µM (inactive) and the GI50 (SF-295) was > 100 µM (inactive). For the same compound, the GI50 (HOP-92) was > 100 µM (inactive), the GI50 (OVCAR-5) was > 100 µM (inactive) and the GI50 (HT-29) was > 100 µM (inactive). For the same compound, the GI50 (K562) was > 100 µM (inactive), the GI50 (UACC-62) was > 100 µM (inactive) and the GI50 (COLO 205) was > 100 µM (inactive). The GI50 (SNB-75) was > 100 µM (inactive) and the GI50 (LOX IMVI) was > 100 µM (inactive).

With `O=C(/C=C/c1c(O)ccc2ccccc12)c1ccc([N+](=O)[O-])cc1` the GI50 (SK-MEL-2) was 33.2 µM (inactive), the GI50 (SNB-19) was > 88.9 µM (inactive) and the GI50 (SW-620) was 25.2 µM (inactive). For the same compound, the GI50 (SK-MEL-5) was 19.4 µM (inactive), the GI50 (A498) was > 100 µM (inactive) and the GI50 (HL-60) was 9.77 µM (inactive). For the same compound, the GI50 (KM12) was 67.1 µM (inactive), the GI50 (CCRF-CEM) was 17.9 µM (inactive) and the GI50 (M19-MEL) was 18.5 µM (inactive). The GI50 (SF-295) was > 66.2 µM (inactive), the GI50 (HOP-92) was 16.1 µM (inactive) and the GI50 (OVCAR-5) was > 100 µM (inactive). The GI50 (HT-29) was 54.1 µM (inactive), the GI50 (K562) was > 49.4 µM (inactive) and the GI50 (UACC-62) was 17.4 µM (inactive). The GI50 (COLO 205) was 33.1 µM (inactive), the GI50 (SNB-75) was > 83 µM (inactive) and the GI50 (LOX IMVI) was 16.7 µM (inactive).
